Test results reported in patent publication US9833497B2, “Human originated EGF domain proteins and use of the same” (CHENGDU SOURCEBIO LIMITED-LIABILITY COMPANY, priority 2013, dated 2017).

Experiments:
Assay type in all cases: cell-based
E. coli DH5α = assay: Antibacterial activity: MIC and growth curve against E. coli DH5α in 96-well plate; conditions: minimal inhibitory concentration against E. coli DH5α; 96-well plate, 5×10^5 CFU/mL, 37° C., judged after 8 h
In short: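 Log-phase bacteria (OD600 ~0.5) resuspended in LB at 5×10^5 CFU/mL, exposed to recombinant protein at 50, 25, 12.5 μg/mL final in triplicate, 37 °C shaking at 175 rpm. OD600 read every 30 min; MIC is lowest concentration showing no growth.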

E. coli BL21 = assay: MIC against Gram-negative bacteria: E. coli BL21; conditions: E. coli BL21; 5×10^5 CFU/mL; 10 h cultivation at 37° C.
In short: (§1)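 MIC = lowest concentration of recombinant protein showing no growth. Test proteins: purified human-derived EGF domain proteins, two-fold dilution series, three wells per concentration; inoculum 5×10^5 CFU/mL in LB; incubation 37° C with shaking at 175 rpm.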

Pseudomonas aeruginosa = assay: MIC against Gram-negative bacteria: Pseudomonas aeruginosa; conditions: Pseudomonas aeruginosa; 5×10^5 CFU/mL; 10 h cultivation at 37° C.
In short: as §1

Klebsiella pneumonia = assay: MIC against Gram-negative bacteria: Klebsiella pneumonia; conditions: Klebsiella pneumonia; 5×10^5 CFU/mL; 10 h cultivation at 37° C.
In short: as §1

Enterobacter cloacae = assay: MIC against Gram-negative bacteria: Enterobacter cloacae; conditions: Enterobacter cloacae; 5×10^5 CFU/mL; 10 h cultivation at 37° C.
In short: as §1

Aeromonas hydrophila = assay: MIC against Gram-negative bacteria: Aeromonas hydrophila; conditions: Aeromonas hydrophila; 5×10^5 CFU/mL; 10 h cultivation at 37° C.
In short: as §1

Citrobacter diversus = assay: MIC against Gram-negative bacteria: Citrobacter diversus; conditions: Citrobacter diversus; 5×10^5 CFU/mL; 10 h cultivation at 37° C.
In short: as §1

Moraxella catarrhalis = assay: MIC against Gram-negative bacteria: Moraxella catarrhalis; conditions: Moraxella catarrhalis; 5×10^5 CFU/mL; 10 h cultivation at 37° C.
In short: as §1

Proteus mirabilis = assay: MIC against Gram-negative bacteria: Proteus mirabilis; conditions: Proteus mirabilis; 5×10^5 CFU/mL; 10 h cultivation at 37° C.
In short: as §1

Proteus vulgaris = assay: MIC against Gram-negative bacteria: Proteus vulgaris; conditions: Proteus vulgaris; 5×10^5 CFU/mL; 10 h cultivation at 37° C.
In short: as §1

Serratia marcescens = assay: MIC against Gram-negative bacteria: Serratia marcescens; conditions: Serratia marcescens; 5×10^5 CFU/mL; 10 h cultivation at 37° C.
In short: as §1

Substance | MIC (E. coli DH5α) [µg/mL] | MIC against E. coli BL21 (E. coli BL21) [µg/mL] | MIC against P. aeruginosa (Pseudomonas aeruginosa) [µg/mL] | MIC against K. pneumonia (Klebsiella pneumonia) [µg/mL] | MIC against E. cloacae (Enterobacter cloacae) [µg/mL] | MIC against A. hydrophila (Aeromonas hydrophila) [µg/mL] | MIC against C. diversus (Citrobacter diversus) [µg/mL] | MIC against M. catarrhalis (Moraxella catarrhalis) [µg/mL] | MIC against P. mirabilis (Proteus mirabilis) [µg/mL] | MIC against P. vulgaris (Proteus vulgaris) [µg/mL] | MIC against S. marcescens (Serratia marcescens) [µg/mL]
PRT1401 (VCHPRCIEHGTCKDGKCECREGWNGEHCT; listed as Homo sapiens) | 12.5 | 25 | 12.5 | 25 | 12.5 | 25 | 12.5 | 25 | 12.5 | 25 | 12.5
PRT1402 (DGCPDLCNGNGRCTLGQNSWQCVCQTGWRGPGCN; listed as Homo sapiens) | 25 | 12.5 | 25 | 12.5 | 50 | 25 | 12.5 | 25 | 50 | 25 | 12.5
PRT1403 (SVVECPRNCHGNGECVSGTCHCFPGFLGPDCS; listed as Homo sapiens) | 50 | 12.5 | 50 | 12.5 | 25 | 25 | 50 | 12.5 | 50 | 12.5 | 50
PRT1404 (RAACPVLCSGNGQYSKGRCLCFSGWKGTECD; listed as Homo sapiens) | 12.5 | 25 | 50 | 25 | 12.5 | 25 | 50 | 25 | 12.5 | 25 | 50
PRT1405 (PTTQCIDPQCGGRGICIMGSCACNSGYKGESCE; listed as Homo sapiens) | 12.5 | 12.5 | 12.5 | 12.5 | 12.5 | 12.5 | 12.5 | 12.5 | 12.5 | 50 | 12.5
PRT1406 (EADCIDPGCSNHGVCIHGECHCSPGWGGSNCE; listed as Homo sapiens) | 25 | 50 | 25 | 12.5 | 25 | 50 | 12.5 | 50 | 12.5 | 50 | 50
PRT1407 (LKTMCPDQCSGHGTYLQESGSCTCDPNWTGPDCS; listed as Homo sapiens) | 50 | 25 | 12.5 | 12.5 | 12.5 | 50 | 12.5 | 50 | 12.5 | 12.5 | 25
